Compound: C1=CC2=C(C=C(C(=C2N=C1)O)N=NC3=CC4=C(C=C3)C=C(C=C4)S(=O)(=O)O)S(=O)(=O)O + COc1cc2c(Oc3ccc(NC(=O)C4(C(=O)Nc5ccc(F)cc5)CC4)cc3F)ccnc2cc1OCCCN1CCOCC1 [Foretinib] (partner 0.25 µM)
Assay: relative viability (nuclei count vs DMSO), 5 days (fraction); higher = more cells survive
Conditions: first compound 0.253 µM
Method in brief: (§1)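 Five library-drug doses in √10 steps were combined with a fixed anchor-drug dose, or a single drug was given alone, by pin tool to lung cancer cell lines in 1536-well plates the day after seeding. Nuclei were stained and counted after 5 days. Relative viability is the nuclei count in treated wells over that in vehicle wells, taken as the median of duplicate plates.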

Cell Line | relative viability
Calu-6 | 0.846
HCC-366 | 0.92
NCI-H1666 | 0.962
NCI-H596 | 0.904
LK-2 | 1.3
NCI-H2087 | 1.14
SK-MES-1 | 0.856
H3255 | 0.851
COR-L23 | 0.961
COR-L 105 | 0.94
IA-LM | 1.01
LOU-NH91 | 0.946
ChaGo-K-1 | 0.986
NCI-H2170 | 0.925
NCI-H2405 | 1.04
A549 | 0.954
SW 900 | 0.9
NCI-H2009 | 1.25
NCI-H661 | 0.989
SK-LU-1 | 0.768
NCI-H1299 | 1.04
NCI-H2228 | 0.826
NCI-H2023 | 0.747
NCI-H1563 | 1.02

Same assay, conditions: first compound 0.8 µM

Cell Line | relative viability
NCI-H2342 | 1.15
NCI-H1623 | 0.854
NCI-H727 | 0.835
NCI-H1650 | 1.38
EBC-1 | 0.104
NCI-H1703 | 0.356
NCI-H1993 | 0.825
SW 1573 | 1.02
NCI-H838 | 1.04
LCLC-103H | 0.684
NCI-H520 | 0.901
NCI-H2126 | 1.22
EMC-BAC-2 | 1.04
NCI-H2085 | 0.894
Calu-6 | 0.92
HCC-366 | 0.891
NCI-H1666 | 0.962
NCI-H596 | 0.82
LK-2 | 0.899

Cell Line | relative viability
NCI-H2087 | 0.873
SK-MES-1 | 0.874
H3255 | 0.835
COR-L23 | 1.02
COR-L 105 | 1.03
IA-LM | 1.1
LOU-NH91 | 0.93
ChaGo-K-1 | 0.855
NCI-H2170 | 0.958
NCI-H2405 | 1.06
A549 | 0.929
SW 900 | 0.912
NCI-H2009 | 1.18
NCI-H661 | 0.981
SK-LU-1 | 0.787
NCI-H1299 | 1.04
NCI-H2228 | 0.87
NCI-H2023 | 0.794
NCI-H1563 | 0.91

Same assay, conditions: first compound 2.53 µM

Cell Line | relative viability
NCI-H2342 | 1.11
NCI-H1623 | 0.832
NCI-H727 | 1.03
NCI-H1650 | 1.01
EBC-1 | 0.0986
NCI-H1703 | 0.363
NCI-H1993 | 0.734
SW 1573 | 1.01
NCI-H838 | 1.03
LCLC-103H | 0.749
NCI-H520 | 0.887
NCI-H2126 | 1.25
EMC-BAC-2 | 1.07
NCI-H2085 | 0.963
Calu-6 | 0.886
HCC-366 | 0.964
NCI-H1666 | 0.958
NCI-H596 | 1.01
LK-2 | 0.911

Cell Line | relative viability
NCI-H2087 | 1.1
SK-MES-1 | 0.761
H3255 | 0.916
COR-L23 | 1.06
COR-L 105 | 1.02
IA-LM | 1.18
LOU-NH91 | 0.917
ChaGo-K-1 | 1.02
NCI-H2170 | 0.799
NCI-H2405 | 1.03
A549 | 0.928
SW 900 | 0.786
NCI-H2009 | 1.28
NCI-H661 | 1.08
SK-LU-1 | 0.787
NCI-H1299 | 1.09
NCI-H2228 | 0.878
NCI-H2023 | 0.997
NCI-H1563 | 0.996

Same assay, conditions: first compound 8 µM

Cell Line | relative viability
NCI-H2342 | 1.05
NCI-H1623 | 0.6
NCI-H727 | 0.774
NCI-H1650 | 0.448
EBC-1 | 0.0948
NCI-H1703 | 0.302
NCI-H1993 | 0.643
SW 1573 | 0.444
NCI-H838 | 1.04
LCLC-103H | 0.747
NCI-H520 | 1.05
NCI-H2126 | 1.15
EMC-BAC-2 | 0.842
NCI-H2085 | 0.634
Calu-6 | 0.912
HCC-366 | 0.851
NCI-H1666 | 0.747
NCI-H596 | 0.737
LK-2 | 1.37

Cell Line | relative viability
NCI-H2087 | 0.921
SK-MES-1 | 1.15
H3255 | 0.628
COR-L23 | 0.995
COR-L 105 | 0.886
IA-LM | 1.12
LOU-NH91 | 1.01
ChaGo-K-1 | 0.927
NCI-H2170 | 0.954
NCI-H2405 | 1.04
A549 | 0.928
SW 900 | 0.741
NCI-H2009 | 0.739
NCI-H661 | 1.04
SK-LU-1 | 0.889
NCI-H1299 | 1.06
NCI-H2228 | 0.923
NCI-H2023 | 0.876
NCI-H1563 | 0.895

Compound: C1=CC2=C(C=C(C(=C2N=C1)O)N=NC3=CC4=C(C=C3)C=C(C=C4)S(=O)(=O)O)S(=O)(=O)O + Cc1cc(Nc2cc(N3CCN(C)CC3)nc(Sc3ccc(NC(=O)C4CC4)cc3)n2)n[nH]1 [Tozasertib] (partner 0.1 µM)
Assay: as above
Conditions: first compound 0.08 µM
Method in brief: as §1

Cell Line | relative viability
NCI-H2342 | 0.52
NCI-H1623 | 0.432
NCI-H727 | 0.535
NCI-H1650 | 0.4
NCI-H1993 | 0.576
SW 1573 | 0.164
NCI-H838 | 0.238
LCLC-103H | 0.514
NCI-H520 | 0.428
NCI-H2126 | 0.911
EMC-BAC-2 | 0.303
NCI-H2085 | 0.928
HCC-366 | 0.152
NCI-H1666 | 0.621
NCI-H596 | 1.16

From the supplement of paper PMC10307832
